For series [1], the system named is skin collagen. Nature of the series: Solubility of skin collagen in neutral salt and dilute acid, CMT-1 (Example I, FIGS. 2 and 3). The series is classed as in vivo, Sprague-Dawley rat. Particulars: for increase of collagen solubility in neutral salt solutions / increase of collagen solubility in dilute acid solutions: vs untreated diabetics, 4° C. The method, then: (§1) Twenty-four adult male Sprague-Dawley rats were weighed (body weight between 350-375 g) and injected through the tail vein with either 0.9% saline (nondiabetic controls, NDC) or with the same solution containing streptozotocin ([…] body weight) to induce diabetes. The diabetic rats were distributed into five experimental groups (n=4 rats per group) and daily administered by oral gavage either 0, 1, 2, 5 or 10 mg of CMT-1 (4-dedimethylaminotetracycline, a chemically-modified non-antimicrobial tetracycline) suspended in 2% carboxymethylcellulose (CMC) for 21 days. The non-diabetic control rats were gavaged with the carrier alone (2% CMC). Urine glucose levels were measured weekly with Tes-Tape (Eli Lily, Inc., Indianapolis, Ind.).
Skin samples were examined for collagen solubility using the techniques described previously (Golub et al., J. Periodont. Res. 12:402 (1977), Golub et al., Biochim. Biophys. Acta 534:73 (1978)) with some modifications. Except where indicated, all steps were carried out at 4° C.
Briefly, for the preparation of neutral salt-soluble collagen, minced rat skin was extracted with Tris-HCl buffer (pH 7.4) for 2 days followed by centrifugation at 11,000×g for 20 min. The pellet was subjected to an additional extraction for 18 hr and centrifuged as described above. Both supernatants were then combined and dialyzed exhaustively against 3% acetic acid for 2 days.
For the preparation of acid-soluble collagen, the pellet was further extracted with 3% acetic acid as described for the neutral salt extraction. The neutral salt and dilute acid extracts were dried with a rotatory evaporator at 60° C. under vacuum.
Following acid hydrolysis, the dried samples from the two extractions were used for neutral salt- and acid-soluble collagen determinations, while the pellet was used to determine the amount of insoluble collagen.
The amount of collagen in the three different skin fractions was also estimated. In particular, aliquots of the hydrolysates were repeatedly evaporated and reconstituted with distilled water to remove the hydrochloric acid. After removal of hydrochloric acid, the aliquots Were colorimetrically analyzed for hydroxyproline, an amino acid "marker" of collagen.
(§2) The data were subject to statistical analysis. The standard error of the mean (S.E.M) was calculated from the standard deviation. The statistical significance between the groups were determined by analysis of variance while the significance of differences between groups was calculated by Tukey's test.

The test system of series [2] is streptozotocin-diabetic rats. Nature of the series: Proteinuria: urine protein excretion in diabetic rats (Example III, FIG. 4). The format is in vivo, rat. To be noted: recent experiments, data not shown; Golub et al. 1992 cited. How it is done:
Example III was carried out to determine the effect of tetracycline therapy on proteinuria, a parameter of renal damage, in diabetic rats.
(§3) Streptozotocin-diabetic rats were treated by the daily oral administration of 20 mg minocycline/rat/day over a 4-week period. At the end of the protocol, 24-hour urines were collected to measure protein excretion.

The subject of series [3] is skin collagen. Description: Glycosylation of skin collagen in diabetic rats, anthrone method (Example IV, FIG. 6). The format is in vivo, Sprague-Dawley rat. Particulars: 5 mg daily oral gavage, 21 days; effect p<0.05. How it is done: (§4) Sixteen adult male sprague-Dawley rats, each weighing approximately 350 grams, were divided into four groups 0f four animals per group.
In addition, the entire skin was dissected from each rat. Samples containing 100mg of each skin were suspended in a Tris-HCl buffer containing 5mM CaCl2 and chromatographically-purified bacterial collagenase and incubated at 37° C. for 4 hours. Following incubation all samples were centrifugated at 35,000×G and the supernatants containing the skin collagen fragments were collected. The skin digest supernatants were analyzed for (1) carbohydrate-attached-to-collagen by the anthrone method, as described by Halhoul and Kleinberg ([…]) Anal. Biochem. 50: 337-343 and (2) total protein using the BioRad Assay, BioRad Chemical Division, Richmond, Calif.

Series [4] is classed as in vivo, Sprague-Dawley rat. Particulars: for Serum CMT-1 Conc.: 21 days, mean of 4 rats ± S.E.M.; for serum concentration for individual rats: individual rats (data not shown), 30240 min. How it is done: as §1
On the 21st day, the rats were weighed and anesthetized with halothane (Halocarbon Laboratories) before blood samples were collected for serum glucose (Sigma glucose oxidase kit, St. Louis, Mo.) and CMT-1 determinations. The rats were then killed by exsanguination and the skin from the entire torso was dissected, weighed, and minced as described by Schneir et al., Diabetes 31:426 (1982).
The extraction and HPLC determination of the concentration of CMT-1 in rat serum was carried out as described by Yu et al., Biochem. Med. & Metabolic Biol. 47:10-20 (1992).
Serum CMT-1 concentration was assayed using the HPLC technique described by Yu et al., BioChem. Med. & Metabolic Biol. 47: 10-20 (1992). […].

A further series concerns serum protein. Nature of the series: Glycosylated serum proteins in diabetic rats (Example IV, FIG. 5). The format is in vivo, Sprague-Dawley rat. To be noted: 5 mg daily oral gavage, 21 days; effect p<0.05.
Description: (Control vs. Diabetic p<0.01, Diabetic vs. Diabetic treated with Doxycycline p<0.05, Diabetic vs. Diabetic treated with CMT-1 (4-dedimethyiaminotetracycline) p<0.05).
as §4

The subject of series [5] is streptozotocin-diabetic rats. Nature of the series: Blood glucose concentration of CMT-1-treated diabetic rats (Example I, FIG. 1). The series is classed as in vivo, Sprague-Dawley rat. To be noted: oral gavage, 1-10 mg/day, 21 days.
Description: Each value represents the mean ± S.E.M. for 4 rats per experimental group.
as §1
On the 21st day, the rats were weighed and anesthetized with halothane (Halocarbon Laboratories) before blood samples were collected for serum glucose (Sigma glucose oxidase kit, St. Louis, Mo.) and CMT-1 determinations. […]
as §2

The test system of series [6] is streptozotocin-diabetic rats. Nature of the series: Other signs of diabetes (hyperglycemia, glucosuria, polyuria) in diabetic rats (Example III). The format is in vivo, rat. How it is done:
as §3

For series [7], the system named is skin collagen. Description: Glycosylation of diabetic rat skin collagen (Example V, Table IV). The series is classed as in vivo, Sprague-Dawley rat. To be noted: 5 mg daily oral gavage, 21 days. The method, then: All animals were weighed weekly.
The subcutaneous muscle layer was removed leaving essentially the dermis. The dermis (skin connective tissue) samples were minced, then homogenized in phosphate buffered saline (4° C.). Following centrifugation (at 9000 rpm, 4° C., 30 min.) of the homogenates, the supernatants were discarded. The pellets were repeatedly washed, then resuspended and extracted at 4° C. overnight in chloroform/methanol to remove lipids. The de-lipidized tissue samples were then washed in 100% methanol, then in 50% methanol. Following the methanol washes, the samples were washed with HEPES buffer (pH 7.4). The skin connective tissue samples (100 mg of each sample) were incubated at 37° C. (24 hours) with chromatographically-purified bacterial collagenase. After 24 hours the reaction mixture was centrifuged at 7000 rpm, room temperature for 30 minutes. Following centrifugation, the supernatants containing the digested collagen were collected. Aliquots of the supernatants were analyzed for glycosylated collagen using a modification of the Isolab Glyco-PROBE™ GSP assay kit. The assay is designed to measure glucose bound to protein which was then converted by Amadori rearrangement to fructosamine. For purposes of the present invention, the sample total protein was increased to compensate for low levels of glycosylated collagen compared to glycosylated serum proteins.

The values below come from patent US5532227A, “Tetracyclines including non-antimicrobial chemically-modified tetracyclines inhibit excessive glycosylation of different types of collagen and other proteins during diabetes” (The Research Foundation of State University of New York, priority 1994, dated 1996).

Read-outs that look alike come from different tables or passages of the source.

`CC1(O)c2cccc(O)c2C(=O)C2=C(O)C3(O)C(=O)C(C(N)=O)=C(O)CC3CC21` (stereo not drawn) [CMT-1, 4-dedimethylaminotetracycline]: the “increase of collagen solubility in neutral salt solutions” value turned out to be 10% with skin collagen [1] (1 mg CMT/day oral) and 91% with skin collagen [1] (10 mg/day oral). Further, the “increase of collagen solubility in dilute acid solutions” value with skin collagen [1] (1 mg/day oral) turned out to be 18%; with skin collagen [1] (10 mg/day oral), 174%. For the same compound, the “quality of collagen in the skin (inhibition of excess crosslinking)” value in the series with skin collagen [1] (diabetic rats, oral) is “normalized”. Moreover, the “proteinuria in diabetic rats” value in series [2] was “a reduction in proteinuria”. Moreover, the “glycosylation of skin collagen” value in the series on skin collagen [3] is recorded as “returned both of these parameters of abnormal glycosylation to essentially normal levels”. For the same compound, the “Serum CMT-1 Conc.” value in series [4] (1 mg CMT/day oral) was found to be 0.75 ± 0.04 µg/mL; in series [4] (2 mg CMT/day oral), 1.75 ± 0.05 µg/mL; in series [4] (5 mg CMT/day oral) it was 3.90 ± 0.16 µg/mL; in series [4] (10 mg CMT/day oral) it was 5.80 ± 0.25 µg/mL. Moreover, the “serum concentration for individual rats” value in series [4] (1 mg oral dose) was found to be 0.6 µg/mL; in series [4] (10 mg oral dose), 6.5 µg/mL. The “fructosamine attached to serum protein (glycosylated serum protein)” value in the series on serum protein is “returned both of these parameters of abnormal glycosylation to essentially normal levels”. The “severity of hyperglycemia (blood glucose concentration)” value in series [5] is reported as “did not significantly alter the severity of hyperglycemia”. Besides, the “other signs of diabetes including hyperglycemia, glucosuria and polyuria” value in series [6] is on record as “Neither treatment with minocycline nor CMT-1 reduced the other signs of diabetes”. The “mM Fructosamine/mg protein (Mean ± SE)” value in the series on skin collagen [7] (NDC 0.027, untreated diabetic 0.377) was 0.123 ± 0.011 mM Fructosamine/mg protein. In the series with skin collagen [7] (vs untreated diabetic control), the “Reduction of glycosylation in treated diabetics (%)” value amounted to 67.4%.
